Test results as given in patent US8247211B2, “Glycopeptide antibiotics” (American Cyanamid Company, priority 2001, dated 2012).
In brackets after ≈: the same amount, converted by molar mass.

How the values were obtained:
Assay in all cases: In vitro antibacterial evaluation: minimum inhibitory concentration (MIC), broth dilution method
Type in all cases: cell-based
Enterococcus sp. = tested on: Enterococcus sp.
In short: (§1)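 Susceptibility determined by NCCLS-recommended broth dilution (M7-A2), Muller-Hinton II […]. Concentration span 64-0.06 μg/mL, inoculum 5×10^5 CFU/mL. Isolates include strains resistant to methicillin, penicillin and/or vancomycin.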

Escherichia coli = tested on: Escherichia coli
In short: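 Values are minimum inhibitory concentrations, meaning the smallest antibiotic concentration that stops growth of the organism. They come from broth dilution in Muller-Hinton II […] per NCCLS guidance (M7-A2), using 5×10^5 CFU/mL and concentrations from 64 to 0.06 μg/mL.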

Staphylococcus sp. = settings: broth dilution, 18 hours at 35° C.
In short: as §1

Streptococcus sp. = tested on: Streptococcus sp.
In short: as §1

[1] = broth dilution, inoculum 5×10^5 CFU/mL, 18 hours at 35° C.

MIC Enterococcus avium (GC 4558) (Enterococcus sp.; [1]): 4 µg/mL (≈ 2.71 µM)
MIC Enterococcus faecalis (ATCC 29212) (Enterococcus sp.; [1]): 4 µg/mL (≈ 2.71 µM)
MIC Enterococcus faecalis (GC 2242) (Enterococcus sp.; [1]): 4 µg/mL (≈ 2.71 µM)
MIC Enterococcus faecalis (GC 2691) (Enterococcus sp.; [1]): 4 µg/mL (≈ 2.71 µM)
MIC Enterococcus faecalis (GC 3059) (Enterococcus sp.; [1]): 4 µg/mL (≈ 2.71 µM)
MIC Enterococcus faecalis (GC 4552) (Enterococcus sp.; [1]): 4 µg/mL (≈ 2.71 µM)
MIC Enterococcus faecalis (GC 4553) (Enterococcus sp.; [1]): 4 µg/mL (≈ 2.71 µM)
MIC Enterococcus faecalis (GC 4554) (Enterococcus sp.; [1]): 2 µg/mL (≈ 1.36 µM)
MIC Enterococcus faecalis (GC 6189) (Enterococcus sp.; [1]): 4 µg/mL (≈ 2.71 µM)
MIC Enterococcus faecium (GC 2243) (Enterococcus sp.; [1]): 4 µg/mL (≈ 2.71 µM)
MIC Enterococcus faecium (GC 4556) (Enterococcus sp.; [1]): 4 µg/mL (≈ 2.71 µM)
MIC Enterococcus faecium (GC 4557) (Enterococcus sp.; [1]): 4 µg/mL (≈ 2.71 µM)
MIC Enterococcus faecalis (ATCC 29212) (Enterococcus sp.; strain ATCC 29212): 4 µg/mL (≈ 2.71 µM)
MIC Enterococcus faecalis (GC 2242) (Enterococcus sp.; strain GC 2242): 4 µg/mL (≈ 2.71 µM)
MIC Enterococcus faecium (GC 2243) (Enterococcus sp.; strain GC 2243): 4 µg/mL (≈ 2.71 µM)
MIC Enterococcus faecalis (GC 2691) (Enterococcus sp.; strain GC 2691): 4 µg/mL (≈ 2.71 µM)
MIC Enterococcus faecalis (GC 3059) (Enterococcus sp.; strain GC 3059): 4 µg/mL (≈ 2.71 µM)
MIC Enterococcus faecalis (GC 4552) (Enterococcus sp.; strain GC 4552): 4 µg/mL (≈ 2.71 µM)
MIC Enterococcus faecalis (GC 4553) (Enterococcus sp.; strain GC 4553): 4 µg/mL (≈ 2.71 µM)
MIC Enterococcus faecalis (GC 4554) (Enterococcus sp.; strain GC 4554): 2 µg/mL (≈ 1.36 µM)
MIC Enterococcus faecium (GC 4556) (Enterococcus sp.; strain GC 4556): 4 µg/mL (≈ 2.71 µM)
MIC Enterococcus faecium (GC 4557) (Enterococcus sp.; strain GC 4557): 4 µg/mL (≈ 2.71 µM)
MIC Enterococcus avium (GC 4558) (Enterococcus sp.; strain GC 4558): 4 µg/mL (≈ 2.71 µM)
MIC Enterococcus faecalis (GC 6189) (Enterococcus sp.; strain GC 6189): 4 µg/mL (≈ 2.71 µM)
MIC Escherichia coli (ATCC 25922) (Escherichia coli; strain ATCC 25922): >64 µg/mL
MIC Escherichia coli (GC 4559) (Escherichia coli; strain GC 4559): >64 µg/mL
MIC Escherichi coli (GC 4560) (Escherichia coli; strain GC 4560): 4 µg/mL (≈ 2.71 µM)
MIC Coagulase Negative Staphylococcus (GC 4547) (Staphylococcus sp.; 5×10^5 CFU/mL): 4 µg/mL (≈ 2.71 µM)
MIC Coagulase Negative Staphylococcus (GC 4548) (Staphylococcus sp.; 5×10^5 CFU/mL): 1 µg/mL (≈ 0.678 µM)
MIC Coagulase Negative Staphylococcus (GC 4549) (Staphylococcus sp.; 5×10^5 CFU/mL): 2 µg/mL (≈ 1.36 µM)
MIC Coagulase Negative Staphylococcus (GC 4551) (Staphylococcus sp.; 5×10^5 CFU/mL): 1 µg/mL (≈ 0.678 µM)
MIC Coagulase Negative Staphylococcus (GC 6257) (Staphylococcus sp.; 5×10^5 CFU/mL): 1 µg/mL (≈ 0.678 µM)
MIC Staphylococcus aureus (ATCC 29213) (Staphylococcus sp.; 5×10^5 CFU/mL): 4 µg/mL (≈ 2.71 µM)
MIC Staphylococcus aureus (GC 1131) (Staphylococcus sp.; 5×10^5 CFU/mL): 4 µg/mL (≈ 2.71 µM)
MIC Staphylococcus aureus (GC 3051) (Staphylococcus sp.; 5×10^5 CFU/mL): 4 µg/mL (≈ 2.71 µM)
MIC Staphylococcus aureus (GC 3053) (Staphylococcus sp.; 5×10^5 CFU/mL): 1 µg/mL (≈ 0.678 µM)
MIC Staphylococcus aureus (GC 4541) (Staphylococcus sp.; 5×10^5 CFU/mL): 2 µg/mL (≈ 1.36 µM)
MIC Staphylococcus aureus (GC 4542) (Staphylococcus sp.; 5×10^5 CFU/mL): 4 µg/mL (≈ 2.71 µM)
MIC Staphylococcus aureus (GC 4544) (Staphylococcus sp.; 5×10^5 CFU/mL): 2 µg/mL (≈ 1.36 µM)
MIC Staphylococcus aureus (GC 4545) (Staphylococcus sp.; 5×10^5 CFU/mL): 4 µg/mL (≈ 2.71 µM)
MIC Staphylococcus aureus-SMITH (GC 4543) (Staphylococcus sp.; 5×10^5 CFU/mL): 4 µg/mL (≈ 2.71 µM)
MIC Staphylococcus aureus (ATCC 29213) (Staphylococcus sp.; strain ATCC 29213): 4 µg/mL (≈ 2.71 µM)
MIC Staphylococcus aureus (GC 1131) (Staphylococcus sp.; strain GC 1131): 4 µg/mL (≈ 2.71 µM)
MIC Staphylococcus aureus (GC 3051) (Staphylococcus sp.; strain GC 3051): 4 µg/mL (≈ 2.71 µM)
MIC Staphylococcus aureus (GC 3053) (Staphylococcus sp.; strain GC 3053): 1 µg/mL (≈ 0.678 µM)
MIC Staphylococcus aureus (GC 4541) (Staphylococcus sp.; strain GC 4541): 2 µg/mL (≈ 1.36 µM)
MIC Staphylococcus aureus (GC 4542) (Staphylococcus sp.; strain GC 4542): 4 µg/mL (≈ 2.71 µM)
MIC Staphylococcus aureus (GC 4544) (Staphylococcus sp.; strain GC 4544): 2 µg/mL (≈ 1.36 µM)
MIC Staphylococcus aureus (GC 4545) (Staphylococcus sp.; strain GC 4545): 4 µg/mL (≈ 2.71 µM)
MIC Streptococcus agalactiae (GC 4564) (Streptococcus sp.; [1]): <0.06 µg/mL
MIC Streptococcus pneumoniae (ATCC 6301) (Streptococcus sp.; [1]): <0.06 µg/mL
MIC Streptococcus pneumoniae (GC 1894) (Streptococcus sp.; [1]): <0.06 µg/mL
MIC Streptococcus pneumoniae (GC 4565) (Streptococcus sp.; [1]): <0.06 µg/mL
MIC Streptococcus pyogenes (GC 4563) (Streptococcus sp.; [1]): <0.06 µg/mL
MIC Streptococcus pneumoniae (ATCC 6301) (Streptococcus sp.; strain ATCC 6301): <0.06 µg/mL
MIC Streptococcus pneumoniae (GC 1894) (Streptococcus sp.; strain GC 1894): <0.06 µg/mL
MIC Streptococcus pyogenes (GC 4563) (Streptococcus sp.; strain GC 4563): <0.06 µg/mL
MIC Streptococcus agalactiae (GC 4564) (Streptococcus sp.; strain GC 4564): <0.06 µg/mL
MIC Streptococcus pneumoniae (GC 4565) (Streptococcus sp.; strain GC 4565): <0.06 µg/mL
Compound: CC(c1ccccc1)C1NC(=O)CNC(=O)C(CO)NC(=O)C(C(O)C2CNC(=N)N2C2OC(CO)C(O)C(O)C2O)NC(=O)C(C(O)C2CNC(=N)N2)NC(=O)C(Cc2ccc(OC3OC(CO)C(OC4OC5COC(c6cccc(Oc7ccccc7)c6)OC5C(O)C4O)C(O)C3O)cc2)NC1=O (stereo not drawn) [Example 170, Cyclo[glycyl-β-methylphenylalanyl-O-[4-O-[4,6-O-(3-phenoxybenzylidene)hexopyranosyl]-hexopyranosyl]tyrosyl-3-(2-iminoimidazoliclin-4-yl)seryl-3-(3-hexopyranosyl-2-iminoimidazolidin-4-yl)serylseryl]]
MIC Staphylococcus haemolyticus (GC 4546) (Staphylococcus sp.; 5×10^5 CFU/mL): 8 µg/mL (≈ 5.42 µM)
